Results from PubChem BioAssay AID256 (DTP/NCI, 2004).
Values joined by “and” are separate entries in the source; they are usually repeats but may differ in a detail not shown here. Identical values can stand only once. Inconclusive results and toxic doses are left out. How the source made its calls: active means survival T/C of 150% or more; inactive means T/C below 125% in these data.

Test system: CD2F1 mice, L1210 leukemia ip, survival T/C
Assay: NCI In Vivo Anticancer Drug Screen. Data for tumor model L1210 Leukemia (intraperitoneal) in CD2F1 (CDF1) mice
Conditions: higher = longer survival
How it was run: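 Mice carrying a transplanted tumor received test compound or vehicle alone. The value is the measurement in the treated group divided by that in the vehicle-treated control group.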

[1] = endpoint: mean survival time, dose: 100.0 mg/kg/injection, schedule: Q04DX003 (ip), vehicle: saline
[2] = endpoint: mean survival time, dose: 200.0 mg/kg/injection, schedule: Q04DX003 (ip), vehicle: saline
[3] = endpoint: mean survival time, dose: 400.0 mg/kg/injection, schedule: Q04DX003 (ip), vehicle: saline
[4] = endpoint: mean survival time, dose: 25.0 mg/kg/injection, schedule: Q04DX003 (ip), vehicle: saline with Tween-80

Measured: T/C

O=C(O)Cc1cccc2c(=O)cc(-c3ccccc3)oc12
inactive: endpoint: median survival time, dose: 12.5 mg/kg/injection, schedule: Q01DX009 (ip), vehicle: suspension in saline 113 % of control and 109 % of control | endpoint: median survival time, dose: 25.0 mg/kg/injection, schedule: Q01DX009 (ip), vehicle: suspension in saline 113 % of control and 105 % of control | endpoint: median survival time, dose: 30.0 mg/kg/injection, schedule: Q01DX009 (ip), vehicle: saline with Tween-80 112 % of control | endpoint: median survival time, dose: 30.0 mg/kg/injection, schedule: Q01DX009 (ip), vehicle: sodium bicarbonate 100 % of control | endpoint: median survival time, dose: 44.0 mg/kg/injection, schedule: Q01DX009 (ip), vehicle: saline with Tween-80 123 % of control | endpoint: median survival time, dose: 44.0 mg/kg/injection, schedule: Q01DX009 (ip), vehicle: sodium bicarbonate 113 % of control | endpoint: median survival time, dose: 45.0 mg/kg/injection, schedule: Q01DX009 (ip), vehicle: sodium bicarbonate 107 % of control | endpoint: median survival time, dose: 50.0 mg/kg/injection, schedule: Q01DX009 (ip), vehicle: suspension in saline 116 % of control | endpoint: median survival time, dose: 67.0 mg/kg/injection, schedule: Q01DX001 (ip), vehicle: sodium bicarbonate 101 % of control | endpoint: median survival time, dose: 67.0 mg/kg/injection, schedule: Q01DX009 (ip), vehicle: sodium bicarbonate 113 % of control and 112 % of control | endpoint: median survival time, dose: 100.0 mg/kg/injection, schedule: Q01DX001 (ip), vehicle: sodium bicarbonate 108 % of control | endpoint: median survival time, dose: 100.0 mg/kg/injection, schedule: Q01DX009 (ip), vehicle: saline with Tween-80 124 % of control | endpoint: median survival time, dose: 100.0 mg/kg/injection, schedule: Q01DX009 (ip), vehicle: sodium bicarbonate 119 % of control and 124 % of control | endpoint: median survival time, dose: 100.0 mg/kg/injection, schedule: Q01DX009 (ip), vehicle: suspension in saline 113 % of control | endpoint: median survival time, dose: 150.0 mg/kg/injection, schedule: Q01DX001 (ip), vehicle: sodium bicarbonate 112 % of control | endpoint: median survival time, dose: 150.0 mg/kg/injection, schedule: Q01DX009 (ip), vehicle: saline with Tween-80 108 % of control | endpoint: median survival time, dose: 200.0 mg/kg/injection, schedule: Q01DX009 (ip), vehicle: suspension in saline 103 % of control | endpoint: median survival time, dose: 223.0 mg/kg/injection, schedule: Q01DX001 (ip), vehicle: sodium bicarbonate 108 % of control | endpoint: median survival time, dose: 333.0 mg/kg/injection, schedule: Q01DX001 (ip), vehicle: sodium bicarbonate 121 % of control
active: endpoint: median survival time, dose: 175.0 mg/kg/injection, schedule: Q01DX009 (ip), vehicle: sodium bicarbonate 156 % of control

Cc1cccc2c(=O)c3ccccc3oc12
inactive: [1] 102 % of control | [2] 102 % of control | [3] 104 % of control

CC(C)(C)CC(C)(C)c1ccc(O)c(O)c1
inactive: [4] 101 % of control | endpoint: mean survival time, dose: 50.0 mg/kg/injection, schedule: Q04DX003 (ip), vehicle: saline with Tween-80 93 % of control | endpoint: mean survival time, dose: 100.0 mg/kg/injection, schedule: Q04DX003 (ip), vehicle: saline with Tween-80 96 % of control

O=CN(O)CC(=O)O.[Ni]
inactive: endpoint: mean survival time, dose: 12.5 mg/kg/injection, schedule: Q04DX003 (ip), vehicle: saline 102 % of control | endpoint: mean survival time, dose: 25.0 mg/kg/injection, schedule: Q04DX003 (ip), vehicle: saline 102 % of control

C=C1C(=O)OC2CCN3CC=C(COC(=O)C(C)(O)C4(CO4)C1C)C23 (stereo not drawn)
inactive: endpoint: mean survival time, dose: 75.0 mg/kg/injection, schedule: Q01DX001 (ip), vehicle: saline 107 % of control

C[N+](C)(C)CCOC(=O)Nc1ccc(C(c2ccc(NC(=O)OCC[N+](C)(C)C)cc2)c2ccc(NC(=O)OCC[N+](C)(C)C)cc2)cc1
inactive: endpoint: mean survival time, dose: 0.25 mg/kg/injection, schedule: Q04DX003 (ip), vehicle: saline with Tween-80 97 % of control | endpoint: mean survival time, dose: 0.5 mg/kg/injection, schedule: Q04DX003 (ip), vehicle: saline with Tween-80 96 % of control | endpoint: mean survival time, dose: 1.0 mg/kg/injection, schedule: Q04DX003 (ip), vehicle: saline with Tween-80 94 % of control

CCC(O)C[As](=O)(O)c1ccccc1Cl (stereo not drawn)
inactive: endpoint: mean survival time, dose: 6.25 mg/kg/injection, schedule: Q04DX003 (ip), vehicle: saline with Tween-80 107 % of control | endpoint: mean survival time, dose: 12.5 mg/kg/injection, schedule: Q04DX003 (ip), vehicle: saline with Tween-80 98 % of control | [4] 104 % of control

CCCCNC(C)(C)C(SS)c1ccc(Cl)cc1 (stereo not drawn)
inactive: [1] 94 % of control | [2] 105 % of control

O=C(O)C1OC12CCCCC2 (stereo not drawn)
inactive: endpoint: mean survival time, dose: 100.0 mg/kg/injection, schedule: Q01DX009 (ip), vehicle: saline 96 % of control | [1] 100 % of control | endpoint: mean survival time, dose: 200.0 mg/kg/injection, schedule: Q01DX009 (ip), vehicle: saline 101 % of control | [2] 101 % of control | endpoint: mean survival time, dose: 400.0 mg/kg/injection, schedule: Q01DX009 (ip), vehicle: saline 100 % of control | [3] 103 % of control

COC(=O)CSc1n[nH]c(=O)[nH]c1=O
inactive: endpoint: mean survival time, dose: 12.5 mg/kg/injection, schedule: Q01DX005 (ip), vehicle: distilled water + Tween-80 97 % of control | endpoint: mean survival time, dose: 25.0 mg/kg/injection, schedule: Q01DX005 (ip), vehicle: distilled water + Tween-80 100 % of control | endpoint: mean survival time, dose: 50.0 mg/kg/injection, schedule: Q01DX005 (ip), vehicle: distilled water + Tween-80 103 % of control | endpoint: mean survival time, dose: 100.0 mg/kg/injection, schedule: Q01DX005 (ip), vehicle: distilled water + Tween-80 94 % of control | endpoint: mean survival time, dose: 200.0 mg/kg/injection, schedule: Q01DX005 (ip), vehicle: distilled water + Tween-80 92 % of control
